Target: T1, PfENT1 (Plasmodium falciparum, UniProt Q8IDM6)
T1 construct: expressed in transfected cells; host or cells: fui1Δ yeast (Saccharomyces cerevisiae), co-expressing GFP
Type: cell-based
Details: primary HTS, compounds at 10 μM, 125 μM 5-FUrd
Protocol: A yeast-based high throughput screening (HTS) assay was used to identify compounds that inhibit PfENT1. The compounds described in this application were identified by screening four commercially available, chemical compound libraries obtained from Dr. Donald Landry's laboratory (Department of Medicine, Columbia University). These libraries contain approximately 80,000 unique chemical entities.
In the primary screen the compounds were tested at a concentration of 10 μM. Hits were identified by the growth of fui1Δ yeast expressing PfENT1 and Green Fluorescent Protein (GFP) in the presence of the cytotoxic nucleoside 5-fluorouridine (5-FUrd). 5-FUrd is transported by PfENT1. PfENT1 expressing fui1Δ yeast will only grow in the presence of 125 μM 5-FUrd if a PfENT1 inhibitor blocks the uptake of 5-FUrd into the yeast. Significant yeast growth in the HTS in 384 well plates was determined by two criteria: 1) turbidity as determined by the optical density at 620 nm (OD620) and 2) GFP fluorescence intensity. […] Hits had to be positive by both criteria.

T1 sequence (Q8IDM6 whole entry): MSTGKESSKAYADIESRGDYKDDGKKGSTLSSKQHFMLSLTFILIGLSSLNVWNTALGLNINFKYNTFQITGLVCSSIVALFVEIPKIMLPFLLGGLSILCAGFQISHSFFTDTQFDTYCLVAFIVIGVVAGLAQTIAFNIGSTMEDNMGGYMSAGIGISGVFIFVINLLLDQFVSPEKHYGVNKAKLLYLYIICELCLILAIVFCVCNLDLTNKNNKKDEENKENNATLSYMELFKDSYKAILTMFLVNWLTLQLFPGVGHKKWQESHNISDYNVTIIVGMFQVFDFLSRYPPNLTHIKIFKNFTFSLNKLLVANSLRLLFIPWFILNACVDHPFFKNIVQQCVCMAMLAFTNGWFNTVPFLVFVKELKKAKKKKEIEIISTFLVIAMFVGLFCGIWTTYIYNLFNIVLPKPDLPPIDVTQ

Structure (SMILES) | Avg Normalized % maximal activity [%]
O=C(Nc1ccc(-c2nnc(-c3ccco3)o2)cc1)C1CCCO1 (stereo not drawn) [compound 26, N-{4-[5-(2-furyl)-1,3,4-oxadiazol-2-yl]phenyl}tetrahydro-2-furancarboxamide] | 15.22
COc1ccc(OC)c(NC(=O)N2CCN(c3cc(Cl)ccc3C)CC2)c1 [compound 124, 4-(5-chloro-2-methylphenyl)-N-(2,5-dimethoxyphenyl)-1-piperazine-carboxamide] | 3.95
CN(C(=O)c1cc2c(=O)n3ccccc3nc2n1C)C1CCCCC1 [compound 153, N-cyclohexyl-N,1-dimethyl-4-oxo-1,4-dihydropyrido [1,2-a]pyrrolo[2,3-d] pyrimidine-2-carboxamide] | 2.37
CCOc1ccccc1C(=O)Nc1nc(C)c(C(=O)N(C)C)s1 [compound 83, 2-[(2-ethoxybenzoyl)amino]-N,N,4-trimethyl-1,3-thiazole-5-carboxamide] | 5.75
COc1ccc(Cl)cc1NC(=O)c1ccc2nccnc2c1 [compound 87, N-(5-chloro-2-methoxyphenyl)-6-quinoxaline-carboxamide] | 5.62
O=C(Nc1cccc(-c2nc3ncccc3o2)c1)c1ccc2c(c1)OCCO2 [compound 145, N-(3-[1,3]oxazolo[4,5-b]pyridin-2-ylphenyl)-2,3-dihydro-1,4-benzodioxine-6-carboxamide] | 3.02
O=C(Nc1cccc(NC(=O)c2cccs2)c1)c1cc2ccccc2o1 [compound 116, N-{3-[(2-thienylcarbonyl)amino]phenyl)-1-benzofuran-2-carboxamide] | 4.34
CCOc1ccccc1NC(=O)c1cccc(NC(=O)c2ccco2)c1 [compound 31, N-(3-{[(2-ethoxyphenyl)amino]carbonyl}phenyl)-2-furamide] | 13.00
COc1c(C)c2c(c(O)c1C/C=C(\C)CCC(=O)OCCN1CCOCC1)C(=O)OC2 [compound 127] | 3.85
COC(=O)c1ccccc1NC(=O)c1cccc(NC(=O)c2cccs2)c1C [compound 112, methyl 2-({2-methyl-3-[(2-thienylcarbonyl)amino]benzoyl}amino)benzoate] | 4.55
CC(C)[C@@H]1CC[C@@H](C)CC1=O [compound 129] | 3.73
COC(=O)c1ccccc1NC(=O)c1cccc(NC(=O)C(C)C)c1 [compound 52] | 8.03
COc1ccc(Cl)cc1C(=O)Nc1cccc(-c2nnc(-c3ccco3)o2)c1 [compound 80, 5-chloro-N-{3-[5-(2-furyl)-1,3,4-oxadiazol-2-yl]phenyl}-2-methoxybenzamide] | 5.99
O=C(Nc1ccc(C(=O)N2CCCCC2)cc1)c1cc2ccccc2oc1=O [compound 70, 2-oxo-N-[4-(1-piperidinylcarbonyl)phenyl]-2H-chromene-3-carboxamide] | 6.71
COc1ccc(-c2cc3ccccc3oc2=O)cc1NC(=O)c1cccs1 [compound 67, N-[2-methoxy-5-(2-oxo-2H-chromen-3-yl)phenyl]-2-thiophenecarboxamide] | 6.98
O=C(COc1ccccc1Cl)Nc1ccc(C(=O)N2CCCCC2)cc1 [compound 8, 2-(2-chlorophenoxy)-N-[4-(1-piperidinylcarbonyl)phenyl]acetamide] | 54.23
Cc1nc(NC(=O)c2sc3ccccc3c2Cl)sc1C(=O)N(C)C [compound 10, 2-{[(3-chloro-1-benzothien-2-yl)carbonyl]amino}-N,N,4-trimethyl-1,3-thiazole-5-carboxamide] | 45.82
Cc1nnc(SCc2csc(-c3ccc4c(c3)OCO4)n2)s1 [compound 46, 2-({[2-(1,3-benzodioxol-5-yl)-1,3-thiazol-4-yl]methyl}thio)-5-methyl-1,3,4-thiadiazole] | 8.94
